Test results reported in ChEMBL document CHEMBL1944578, “Synthesis and anticonvulsant activity of novel 2,6-diketopiperazine derivatives. Part 2: Perhydropyrido[1,2-a]pyrazines” (Eur J Med Chem, 2012).

Key:
Format in all cases: functional
Mus musculus [1] = experiment: Anticonvulsant activity in ip dosed Carworth farms No.1 albino mouse assessed as protection against subcutaneous metrazole-induced seizures
Mus musculus [2] = experiment: Anticonvulsant activity in ip dosed Carworth farms No.1 albino mouse assessed as protection against maximum electroshock
Mus musculus [3] = organism: Mus musculus; experiment: Anticonvulsant activity in maximum electroshock-induced Carworth farms No.1 albino mouse assessed as time of peak effect

## O=C1NC(=O)C(c2ccccc2)(c2ccccc2)N1 [PHENYTOIN]
Mus musculus [1]
  ED50: > 50 mg/kg
Mus musculus [2]
  ED50: 5.64 mg/kg
Mus musculus [3]
  Time: 1 h
